Data published in US20160058738A1, “PHARMACEUTICAL COMPOSITION FOR PREVENTING OR TREATING OVARY GRANULOSA CELL TUMORS CONTAINING GLYCOGEN SYNTHASE KINASE-3 BETA INHIBITOR AS ACTIVE INGREDIENT, AND FUNCTIONAL HEALTH FOOD COMPOSITION” (CHUNG-ANG UNIVERSITY INDUSTRY-ACADEMIC COOPERATION …, priority 2013, published 2016).

Columns and labels:
[1] = system: KGN cells stably expressing FOXL2; assay: Efficacy on tumor induced by KGN cells in nude mice; type: in vivo, BALB/c-nu mice; conditions: 2 mg/kg injected directly into tumor-induced region 10 times for two weeks, starting three weeks after cell injection
Description: 6-week-old mature male BALB/c-nu mice were purchased from Central Laboratory Animal, Inc., and allowed for one week to be adapted to environments of the breeding facility and the laboratory in the Chung-Ang University Laboratory Animal Research Center to ensure that the mice had no general symptoms, prior to being used for the experiment. The animals were housed at a density of five mice per polycarbonate cage, and solid food for laboratory animals and water were freely provided. The environments for the breeding laboratory including a temperature, humidity, a ventilation cycle, a light/dark cycle, and illuminance were constantly maintained, and all the experiments were conducted in accordance with the regulation of the Chung-Ang University Animal Research Ethics Committee.
3×10^7 of KGN cells stably expressing FOXL2 were subcutaneously injected into each mouse to induce a tumor. Three weeks after the injection, the GSK3beta inhibitor (AR-A014418) was directly injected into a tumor-induced region at 2 mg/kg 10 times for two weeks and then a tumor size was measured, and the result is shown in FIG. 14.

[2] = system: cells in which the FOXL2 protein was overexpressed; assay: Experiment for cell growth rate; type: cell-based, human; conditions: for cell growth rate of the C134W mutant: cells overexpressing FOXL2 C134W mutant
Protocol: After the cells in which the FOXL2 protein was overexpressed were treated with a GSK3beta inhibitor (AR-A014418), a cell growth rate according to time was measured, and the result is shown in FIG. 13.

[3] = system: phosphorylation of the FOXL2 S33 residue; assay: Western blotting of the phosphorylation of the FOXL2 S33 residue after kinase inhibitor treatment; type: cell-based, human; conditions: 10 μM inhibitor, KGN cells overexpressing FOXL2 WT
Protocol: The cultured cells were harvested, and a protein was extracted from the cells using a Nonidet P-40 (NP-40) solution. For quantification of the extracted protein, a Bicinchoninic acid (BCA)™ protein assay was performed. The quantified protein was transferred to a polyvinylidene fluoride (PVDF) membrane by SDS-PAGE electrophoresis, and incubated with an antibody for each protein to be detected. Afterward, the proteins were detected using secondary antibodies and a ChemDoc system.
While the FOXL2 WT was overexpressed in the KGN cells, the cells were treated with 10 μM of the inhibitor of each kinase, cultured for 18 hours and sampled, and then a change in phosphorylation was measured by performing western blotting. Here, the change in phosphorylation was measured using an antibody specifically binding to a peptide consisting of an amino acid of SEQ. ID.
To confirm whether an inhibitory effect of GSK3beta on the FOXL2 S33 residue is a GSK3beta-specific effect, cells in which FOXL2 WT was overexpressed were treated with 10 μM each of AR-A014418 and TWS1119, which are two different GSK3beta inhibitors, sampled, and analyzed by western blotting. Here, AR-A014418 contains a compound represented by Formula 2.

FOXL2 protein = assay: Experiment for protein stability (cyclohexamide chase, western blotting); type: cell-based, human; conditions: FOXL2-overexpressing cells, then 10 μg cyclohexamide, sampled at 0, 6, 12, 24 hours
Protocol: The cultured cells were harvested, and a protein was extracted from the cells using a Nonidet P-40 (NP-40) solution. For quantification of the extracted protein, a Bicinchoninic acid (BCA)™ protein assay was performed. The quantified protein was transferred to a polyvinylidene fluoride (PVDF) membrane by SDS-PAGE electrophoresis, and incubated with an antibody for each protein to be detected. Afterward, the proteins were detected using secondary antibodies and a ChemDoc system. To confirm whether the effect of decreasing the cell viability by inducing the activity of a specific promoter such as TNFR1, FAS, Caspase8 and p21 induces regulation of FOXL2 protein stability by the phosphorylation of the FOXL2 S33 residue, cells in which a FOXL2 protein was overexpressed were treated with a GSK3beta inhibitor (SB 216763) and expressed, treated with 10 μg of cyclohexamide which is a protein synthesis inhibitor, and then sampled at 0, 6, 12, and 24 hours to perform western blotting, and the result is shown in FIG. 12.

COc1ccc(CNC(=O)Nc2ncc([N+](=O)[O-])s2)cc1 [AR-A014418, N-[(4-Methoxyphenyl)Methyl]-N′-(5-nitro-thiazol-2-yl)urea]
size of the tumor induced in the ovarian GCT cells [1]: remarkably decreased | size of the tumor induced in the ovarian GCT cells ([1]; listed as Formula 2): decreased | cell growth rate ([2]; FOXL2-overexpressing cells, growth rate according to time): decrease | cell growth rate of the C134W mutant [2]: remarkably decreased | cell growth rate of the C134W mutant ([2]; listed as Formula 2): decreased | phosphorylation of the FOXL2 S33 residue [3]: reduced | phosphorylation of the FOXL2 S33 residue ([3]; listed as Formula 2): decreased

Nc1cccc(-c2cc3c(Oc4cccc(O)c4)ncnc3[nH]2)c1 [TWS1119]
phosphorylation of the FOXL2 S33 residue [3]: reduced

Cn1cc(C2=C(c3ccc(Cl)cc3Cl)C(=O)NC2=O)c2ccccc21 [SB 216763, 3-(2,4-Dichlorophenyl)-4-(1-methyl-1H-indol-3-yl)-1H-pyrrole-2,5-dione]
size of the tumor induced in the ovarian GCT cells [1]: decreased | cell growth rate of the C134W mutant [2]: decreased | FOXL2 protein stability (FOXL2 protein): increased | phosphorylation of the FOXL2 S33 residue [3]: reduced | phosphorylation of the FOXL2 S33 residue ([3]; listed as Formula 1): decreased
